# Measurements from patent EP4745117A1, “NOVEL INDENONE DERIVATIVE AND USE THEREOF” (Amyloid Solution Inc., priority 2023, dated 2025).
# Where two headings read alike, the source gives them in different places.
# How the values were obtained:
# [1] = molecular target: T1, Aβ1-42 (Homo sapiens, UniProt P05067); assay: Amyloid-beta disaggregation test by Thioflavin-T analysis; format: biochemical; details: for disaggregation effect for amyloid-beta protein aggregates: statement in words summarising the Thioflavin-T results
# T1 construct: dissolving Aβ1-42 or Tau-RD3 (Tau repeat domain 3) monomers in DMSO
# T1 sequence (P05067 672-713 limits assumed): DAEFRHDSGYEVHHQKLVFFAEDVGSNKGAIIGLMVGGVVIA
# Procedure: (§1) Each compound was dissolved in DMSO to a concentration of 10 mM. Then, the compounds were diluted with 6 % DMSO (in DW) for use.
# (§2) Amyloid-beta and tau solutions were prepared by dissolving Aβ1-42 or Tau-RD3 (Tau repeat domain 3) monomers in DMSO to a concentration of 10 mM. Then, the solutions were diluted to 100 µM with DW and stored on ice.
# (§3) Meanwhile, Thioflavin-T was dissolved in 50 mM glycine buffer (pH 8.5) to a concentration of 5 mM. Then, the solution was diluted to 5 µM with 50 mM glycine buffer (pH 8.5) and stored in the dark, protected from light.
# (§4) The amyloid-beta and tau solutions prepared in Example 1.1 were each placed in 1.5 mL microcentrifuge tubes to a concentration of 50 µM or 35 µM, respectively, and then reacted at 37 °C for 24 hours.
# (§5) To each 1.5 mL microcentrifuge tube in which the amyloid-beta and tau aggregation was complete, the compounds were added at concentrations ranging from 500 µM down to 0 µM by serial dilution, and then further reacted at 37 °C for 48 hours.
# (§6) 25 µL of each completed reaction solution was added to each well of a 96-well fluorescence analysis plate, and 75 µL of the Thioflavin-T solution was added to each well. After reacting for 5 minutes at room temperature in the dark, the fluorescence value was measured at 450 nm (excitation) and 485 nm (emission) using a multi-mode microplate reader.
# (§7) The fluorescence value of the group (control group) treated with only amyloid-beta or tau and aggregated for 72 hours was designated as 100 %. The fluorescence values measured after treating the amyloid-beta and tau aggregates (formed by reacting for 24 hours) with each compound by concentration and reacting for an additional 48 hours were converted to relative values.
# [2] = molecular target: Tau-RD3 (Tau repeat domain 3) (Homo sapiens, UniProt P10636); assay: Tau disaggregation test by Thioflavin-T analysis; format: biochemical
# Tau-RD3 (Tau repeat domain 3), sequence (P10636 623-653 limits assumed): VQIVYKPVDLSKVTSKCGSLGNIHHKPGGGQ
# Procedure: as §1, §2, §3, §4, §5, §6, §7
# [3] = Aβ1-42 50 µM aggregated 24 hours, then compound 0 - 500 µM for 48 hours at 37 °C, concentration disaggregating 50 % of aggregates vs control, read-out: EC50 (µM) Aβ
# [4] = Tau-RD3 35 µM aggregated 24 hours, then compound 0 - 500 µM for 48 hours at 37 °C; concentration disaggregating 50 % of aggregates vs control; read-out: EC50 (µM) Tau
# [5] = statement in words summarising the Thioflavin-T results
SMILES,"EC50 [1, 3] [µM]","EC50 [2, 4] [µM]",further results
"O=C1C(c2ccccc2)=C(c2ccccc2)c2ccccc21 [Compound 1, 2,3-diphenylinden-1-one]",< 20,> 250,
"COc1ccc2c(c1)C(=O)C(c1ccccc1)=C2c1ccccc1 [Compound 2, 6-methoxy-2,3-diphenyl-1H-inden-1-one]",< 20,> 250,
"CCCOc1ccc2c(c1)C(=O)C(c1ccccc1)=C2c1ccccc1 [Compound 3, 2,3-diphenyl-6-propoxy-1H-inden-1-one]",< 20,> 250,
"CC(C)Oc1ccc2c(c1)C(=O)C(c1ccccc1)=C2c1ccccc1 [Compound 4, isopropoxy-2,3-diphenyl-1H-inden-1-one]",,,"EC50 ([1]; read-out: EC50 (µM) Aβ, Aβ1-42 50 µM aggregated 24 hours, then compound 0 - 500 µM for 48 hours at 37 °C, concentration disaggregating 50 % of aggregates vs control): 20 to 100 µM; EC50 ([2]; read-out: EC50 (µM) Tau; Tau-RD3 35 µM aggregated 24 hours, then compound 0 - 500 µM for 48 hours at 37 °C; concentration disaggregating 50 % of aggregates vs control): > 250 µM"
"Cc1ccccc1C1=C(c2ccccc2)C(=O)c2ccccc21 [Compound 5, 2-phenyl-3-(o-tolyl)-1H-inden-1-one]",20 to 100,> 250,
"O=C1C(c2ccccc2)=C(Br)c2ccccc21 [Compound 5-4, 3-bromo-2-phenyl-1H-inden-1-one]",< 20,< 20,"disaggregation effect for amyloid-beta protein aggregates [1]: remarkably excellent disaggregation effect; disaggregation effect for tau protein aggregates [2, 5]: remarkably excellent disaggregation effect"
"Cc1ccccc1C1=C(c2ccccc2)c2ccccc2C1=O [Compound 6, 3-phenyl-2-(o-tolyl)-1H-inden-1-one]",20 to 100,> 250,
"O=C1C(Br)=C(c2ccccc2)c2ccccc21 [Compound 6-2, 2-bromo-3-phenyl-1H-inden-1-one]",20 to 100,< 20,
"O=C1C(c2cccnc2)=C(c2ccccc2)c2ccccc21 [Compound 7, 3-phenyl-2-(pyridin-3-yl)-1H-inden-1-one]",< 20,> 250,
"O=C1C(N2CCOCC2)=C(c2ccccc2)c2ccccc21 [Compound 8, 2-morpholino-3-phenyl-1H-inden-1-one]",100 to 250,20 to 100,
"O=C1C(c2ccccc2)=C(c2cccnc2)c2ccccc21 [Compound 9, 2-phenyl-3-(pyridin-3-yl)-1H-inden-1-one]",20 to 100,20 to 100,
"O=C1C(c2ccccc2)=C(C2CCCCC2)c2ccccc21 [Compound 10, 3-cyclohexyl-2-phenyl-1H-inden-1-one]",> 250,> 250,
"O=C1C(C2CCCCC2)=C(c2ccccc2)c2ccccc21 [Compound 11, 2-cyclohexyl-3-phenyl-1H-inden-1-one]",100 to 250,> 250,
"Cc1ncsc1C1=C(c2ccn(C3CCN(C)CC3)n2)C(=O)c2cc(OCCCc3ccccc3)ccc21 [Compound 29, 2-(1-(1-methylpiperidin-4-yl)-1H-pyrazol-3-yl)-3-(4-methylthiazol-5-yl)-6-(3-phenylpropoxy)-1H-inden-1-one]",,> 250,EC50 [1]: > 250 µM

# Further lines, with some results ahead:
"EC50 [1, 3] [µM]","EC50 [2, 4] [µM]",SMILES,further results
< 20,> 250,"O=C1C(c2ccccc2)=C(c2ccccc2)c2ccc(N3CCOCC3)cc21 [Compound 12, 6-morpholino-2,3-diphenyl-1H-inden-1-one]",
100 to 250,> 250,"O=C1C(c2ccccc2)=C(c2ccccc2)c2ccc(Cl)cc21 [Compound 12-3, 6-chloro-2,3-diphenyl-1H-inden-1-one]",
< 20,> 250,"O=C1C(c2ccccc2)=C(c2ccc(N3CCOCC3)cc2)c2ccccc21 [Compound 14, 3-(4-morpholinophenyl)-2-phenyl-1H-inden-1-one]",
20 to 100,> 250,"O=C1C(c2ccccc2)=C(c2cccc(N3CCOCC3)c2)c2ccccc21 [Compound 15, 3-(3-morpholinophenyl)-2-phenyl-1H-inden-1-one]",
20 to 100,> 250,"O=C1C(c2ccccc2)=C(c2ccc(CN3CCOCC3)cc2)c2ccccc21 [Compound 16, 3-(4-(morpholinomethyl)phenyl)-2-phenyl-1H-inden-1-one]",
< 20,> 250,"O=C1C(c2ccc(N3CCOCC3)cc2)=C(c2ccccc2)c2ccccc21 [Compound 17, 2-(4-morpholinophenyl)-3-phenyl-1H-inden-1-one]",
< 20,> 250,"O=C1C(c2cccc(N3CCOCC3)c2)=C(c2ccccc2)c2ccccc21 [Compound 18, 2-(3-morpholinophenyl)-3-phenyl-1H-inden-1-one]",
> 250,100 to 250,"Cc1ncsc1C1=C(c2cccnc2)C(=O)c2ccccc21 [Compound 19, 3-(4-methylthiazol-5-yl)-2-(pyridin-3-yl)-1H-inden-1-one]",
< 20,< 20,"Cc1ncsc1C1=C(c2cccnc2)C(=O)c2cc(NCCCc3ccccc3)ccc21 [Compound 20, 3-(4-methylthiazol-5-yl)-6-((3-phenylpropyl)amino)-2-(pyridin-3-yl)-1H-inden-1-one]","disaggregation effect for amyloid-beta protein aggregates [1]: remarkably excellent disaggregation effect; disaggregation effect for tau protein aggregates [2, 5]: remarkably excellent disaggregation effect"
< 20,< 20,"Cc1ccncc1C1=C(c2scnc2C)c2ccc(OCCCc3ccccc3)cc2C1=O [Compound 21, 2-(4-methylpyridin-3-yl)-3-(4-methylthiazol-5-yl)-6-(3-phenylpropoxy)-1H-inden-1-one]","disaggregation effect for amyloid-beta protein aggregates [1]: remarkably excellent disaggregation effect; disaggregation effect for tau protein aggregates [2, 5]: remarkably excellent disaggregation effect"
> 250,20 to 100,"COc1ccc2c(c1)C(=O)C(c1cnccc1C)=C2c1scnc1C [Compound 22, 6-methoxy-2-(4-methylpyridin-3-yl)-3-(4-methylthiazol-5-yl)-1H-inden-1-one]",
< 20,< 20,"Cc1scnc1C1=C(c2cccnc2)C(=O)c2cc(OCCCc3ccncc3)ccc21 [Compound 23, 3-(5-methylthiazol-4-yl)-2-(pyridin-3-yl)-6-(3-(pyridin-4-yl)propoxy)-1H-inden-1-one]","disaggregation effect for amyloid-beta protein aggregates [1]: remarkably excellent disaggregation effect; disaggregation effect for tau protein aggregates [2, 5]: remarkably excellent disaggregation effect"
> 250,20 to 100,"Cc1scnc1C1=C(c2cccnc2)C(=O)c2cc(O)ccc21 [Compound 23-10, 6-hydroxy-3-(5-methylthiazol-4-yl)-2-(pyridin-3-yl)-1H-inden-1-one]",
> 250,< 20,"CC(=O)Oc1ccc2c(c1)C(=O)C(Br)=C2c1ccn(C)n1 [Compound 24, 2-bromo-3-(1-methyl-1H-pyrazol-3-yl)-1-oxo-1H-inden-6-yl acetate]",
< 20,> 250,"Cc1ncsc1C1=C(c2cc[nH]n2)C(=O)c2cc(OCCCc3ccccc3)ccc21 [Compound 25, 3-(4-methylthiazol-5-yl)-6-(3-phenylpropoxy)-2-(1H-pyrazol-3-yl)-1H-inden-1-one]",
< 20,> 250,"Cc1ncsc1C1=C(c2ccn(C)n2)C(=O)c2cc(OCCCc3ccccc3)ccc21 [Compound 26, 2-(1-methyl-1H-pyrazol-3-yl)-3-(4-methylthiazol-5-yl)-6-(3-phenylpropoxy)-1H-inden-1-one]",
< 20,< 20,"Cc1ncsc1C1=C(c2cn[nH]c2)C(=O)c2cc(OCCCc3ccccc3)ccc21 [Compound 27, 3-(4-methylthiazol-5-yl)-6-(3-phenylpropoxy)-2-(1H-pyrazol-4-yl)-1H-inden-1-one]","disaggregation effect for amyloid-beta protein aggregates [1]: remarkably excellent disaggregation effect; disaggregation effect for tau protein aggregates [2, 5]: remarkably excellent disaggregation effect"
< 20,< 20,"Cc1ncsc1C1=C(c2cnn(C)c2)C(=O)c2cc(OCCCc3ccccc3)ccc21 [Compound 28, 2-(1-methyl-1H-pyrazol-4-yl)-3-(4-methylthiazol-5-yl)-6-(3-phenylpropoxy)-1H-inden-1-one]","disaggregation effect for amyloid-beta protein aggregates [1]: remarkably excellent disaggregation effect; disaggregation effect for tau protein aggregates [2, 5]: remarkably excellent disaggregation effect"
< 20,< 20,"Cc1ncsc1C1=C(c2c[nH]nn2)C(=O)c2cc(OCCCc3ccccc3)ccc21 [Compound 31, 3-(4-methylthiazol-5-yl)-6-(3-phenylpropoxy)-2-(1H-1,2,3-triazol-4-yl)-1H-inden-1-one]",
